Measured values: ChEMBL document CHEMBL5724914, “Linking interpersonal differences in gut microbiota composition and drug biotransformation activity” (2024)

Assays:
[1] = human gut metagenome, 24 h, 2 µM
[2] = human gut metagenome, 24 h, 2 µM; remark: listed apart in the source
[3] = (§1) The drug is tested on WLS-006 corresponding to human gut metagenome with ENA study accession number: PRJEB37062 and ENA sample accession number: ERS12561741 for biotransformation under anaerobic condition. The drug concentrations were measured over 9 timepoints collected between 0 and 24 hours of incubation by liquid-chromatography-coupled mass spectrometry (LC–MS); settings: 2 µM
[4] = human gut metagenome, 24 h, 2 µM; remark: listed apart in the source
[5] = as §1, with “Z-028” for “WLS-006”, “mouse” for “human”, “ERS12561827” for “ERS12561741”; settings: 2 µM
[6] = human gut metagenome, 24 h, 2 µM; remark: listed apart in the source
[7] = human gut metagenome, 24 h, 2 µM; remark: listed apart in the source
[8] = as §1, with “WLS-370” for “WLS-006”, “ERS12561793” for “ERS12561741”; settings: 2 µM
[9] = human gut metagenome, 24 h, 2 µM; remark: listed apart in the source
Note: call rule not given here.

| SMILES | Bacterial Biotransformation [1] | Bacterial Biotransformation [2] | Bacterial Biotransformation [3] | Bacterial Biotransformation [4] | Bacterial Biotransformation [5] | Bacterial Biotransformation [6] | Bacterial Biotransformation [7] | Bacterial Biotransformation [8] | Bacterial Biotransformation [9] |
| --- | --- | --- | --- | --- | --- | --- | --- | --- | --- |
| CC(N)C12CC3CC(CC(C3)C1)C2 (stereo unspecified) [RIMANTADINE] | Compound NOT metabolized | Compound NOT metabolized | Compound NOT metabolized | Compound NOT metabolized | Compound NOT metabolized | Compound NOT metabolized | Compound NOT metabolized | Compound NOT metabolized | Compound NOT metabolized |
| CCN(C)C(=O)Oc1cccc([C@H](C)N(C)C)c1.O=C(O)C(O)C(O)C(=O)O [RIVASTIGMINE TARTRATE] | Compound NOT metabolized | Compound NOT metabolized | Compound NOT metabolized | Compound NOT metabolized | Compound NOT metabolized | Compound NOT metabolized | Compound metabolized | Compound NOT metabolized | Compound NOT metabolized |
| CCCN(CCC)CCc1cccc2c1CC(=O)N2 [ROPINIROLE] | Compound NOT metabolized | Compound NOT metabolized | Compound NOT metabolized | Compound metabolized | Compound NOT metabolized | Compound NOT metabolized | Compound NOT metabolized | Compound NOT metabolized | Compound NOT metabolized |
| O=C(O)CCC(=O)O.O=C(O[C@H]1CN2CCC1CC2)N1CCc2ccccc2[C@@H]1c1ccccc1 [SOLIFENACIN SUCCINATE] | Compound metabolized | Compound NOT metabolized | Compound metabolized | Compound NOT metabolized | Compound NOT metabolized | Compound NOT metabolized | Compound metabolized | Compound metabolized | Compound NOT metabolized |
| O=C(CCCN1CCC2(CC1)C(=O)NCN2c1ccccc1)c1ccc(F)cc1 [SPIPERONE] | Compound NOT metabolized | Compound NOT metabolized | Compound metabolized | Compound metabolized | Compound NOT metabolized | Compound NOT metabolized | Compound metabolized | Compound NOT metabolized | Compound NOT metabolized |
| O=C1C(CC[S+]([O-])c2ccccc2)C(=O)N(c2ccccc2)N1c1ccccc1 (stereo unspecified) [SULFINPYRAZONE] | Compound metabolized | Compound metabolized | Compound metabolized | Compound metabolized | Compound metabolized | Compound metabolized | Compound metabolized | Compound metabolized | Compound NOT metabolized |
| c1ccc2[nH]c(-c3cscn3)nc2c1 [THIABENDAZOLE] | Compound NOT metabolized | Compound NOT metabolized | Compound NOT metabolized | Compound metabolized | Compound NOT metabolized | Compound NOT metabolized | Compound NOT metabolized | Compound NOT metabolized | Compound NOT metabolized |

The next lines start with the values.

| Bacterial Biotransformation [1] | Bacterial Biotransformation [2] | Bacterial Biotransformation [3] | Bacterial Biotransformation [4] | Bacterial Biotransformation [5] | Bacterial Biotransformation [6] | Bacterial Biotransformation [7] | Bacterial Biotransformation [8] | Bacterial Biotransformation [9] | SMILES |
| --- | --- | --- | --- | --- | --- | --- | --- | --- | --- |
| Compound metabolized | Compound NOT metabolized | Compound metabolized | Compound NOT metabolized | Compound NOT metabolized | Compound NOT metabolized | Compound NOT metabolized | Compound NOT metabolized | Compound NOT metabolized | C=C[C@H]1CN2CC[C@H]1C[C@H]2[C@H](O)c1ccnc2ccc(OC)cc12.C=C[C@H]1CN2CC[C@H]1C[C@H]2[C@H](O)c1ccnc2ccc(OC)cc12.O.O.O=S(=O)(O)O [QUININE SULFATE] |
| Compound metabolized | Compound NOT metabolized | Compound NOT metabolized | Compound NOT metabolized | Compound NOT metabolized | Compound NOT metabolized | Compound NOT metabolized | Compound metabolized | Compound NOT metabolized | O=C(NC(Cc1cc(=O)[nH]c2ccccc12)C(=O)O)c1ccc(Cl)cc1 (stereo unspecified) [REBAMIPIDE] |
| Compound metabolized | Compound metabolized | Compound metabolized | Compound metabolized | Compound metabolized | Compound metabolized | Compound NOT metabolized | Compound metabolized | Compound NOT metabolized | CCOc1cc(CC(=O)N[C@@H](CC(C)C)c2ccccc2N2CCCCC2)ccc1C(=O)O [REPAGLINIDE] |
| Compound metabolized | Compound metabolized | Compound metabolized | Compound metabolized | Compound NOT metabolized | Compound NOT metabolized | Compound NOT metabolized | Compound metabolized | Compound NOT metabolized | CN[C@H]1CC[C@@H](c2ccc(Cl)c(Cl)c2)c2ccccc21 [SERTRALINE] |
| Compound NOT metabolized | Compound NOT metabolized | Compound metabolized | Compound metabolized | Compound NOT metabolized | Compound NOT metabolized | Compound NOT metabolized | Compound NOT metabolized | Compound NOT metabolized | CCOc1ccccc1OCCN[C@H](C)Cc1ccc(OC)c(S(N)(=O)=O)c1.Cl [TAMSULOSIN HYDROCHLORIDE] |
| Compound NOT metabolized | Compound NOT metabolized | Compound NOT metabolized | Compound NOT metabolized | Compound NOT metabolized | Compound NOT metabolized | Compound NOT metabolized | Compound NOT metabolized | Compound NOT metabolized | CCCCCNC(=N)N/N=C/c1c[nH]c2ccc(OC)cc12.O=C(O)/C=C\C(=O)O [TEGASEROD MALEATE] |
| Compound NOT metabolized | Compound NOT metabolized | Compound metabolized | Compound NOT metabolized | Compound NOT metabolized | Compound NOT metabolized | Compound NOT metabolized | Compound NOT metabolized | Compound NOT metabolized | COc1cc2nc(N3CCN(C(=O)C4CCCO4)CC3)nc(N)c2cc1OC (stereo unspecified) [TERAZOSIN] |
